Measured values: patent US11584775B2, “C4-modified oleanolic acid derivatives for inhibition of IL-17 and other uses” (REATA PHARMACEUTICALS, INC., priority 2015, dated 2023)

What was measured:
[1] = tested on: IFNγ-induced Nitric Oxide production; assay: Nitric oxide production assay in RAW 264.7 mouse macrophages; assay type: cell-based; conditions: RAW264.7, suppression of IFNγ-induced NO production normalized to cell viability (WST-1), RAW 264.7, 24 hours IFNγ
Method in brief: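 Cells pre-treated 2 h with compound (0.4-200 nM or 2-1000 nM) in RPMI 1640 + 0.5% FBS, then stimulated with recombinant mouse IFNγ for 24 h at 37 °C. Nitrite measured by Griess reagent, viability by WST-1; IC50 from NO suppression normalized to viability and to DMSO/IFNγ controls.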

[2] = tested on: NRF2; assay: AREc32 luciferase reporter assay; assay type: cell-based, human; conditions: EC2×: concentration required to increase GST ARE Luciferase reporter activity by 2-fold; AREc32 cells, 19 hours
Method in brief: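 AREc32 cells (MCF-7 stably carrying eight rat GSTA2 ARE copies driving firefly luciferase) treated 19 h with compound (0.4–200 nM or 2–1000 nM), triplicate. Luminescence normalized to DMSO as fold-induction; variable-slope fit capped at 50-fold; EC2× = concentration giving 2-fold induction.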

[3] = target: T1, human RORγ (Homo sapiens, UniProt P51449); assay: RORγ assay (GAL4-RORγ hybrid luciferase reporter, inverse-agonist activity); assay type: cell-based; conditions: GAL4-RORγ hybrid reporter cells, 23 hours
T1 sequence (P51449 269-508 limits assumed): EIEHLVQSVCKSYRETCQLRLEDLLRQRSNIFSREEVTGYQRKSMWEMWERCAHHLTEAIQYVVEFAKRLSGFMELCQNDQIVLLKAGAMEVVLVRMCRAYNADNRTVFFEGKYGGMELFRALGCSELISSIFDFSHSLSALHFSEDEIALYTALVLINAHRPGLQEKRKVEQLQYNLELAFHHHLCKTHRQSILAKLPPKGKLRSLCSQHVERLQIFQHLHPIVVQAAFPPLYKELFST
Method in brief: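 Human cell line expressing GAL4-DBD/RORγ hybrid with UAS-driven luciferase, treated in triplicate with compound (0.4–200 nM or 2–1000 nM) for 23 h at 37 °C. Luminescence normalized to DMSO; viability measured in parallel by multiplex assay. IC50 for RORγ and viability by variable-slope nonlinear regression.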

[4] = tested on: hIL17; assay: IL-17 release from differentiated primary human T-cells (IL-17A HTRF assay); assay type: cell-based; conditions: inhibition of IL-17A levels; primary human CD4+ T cells differentiated into Th17 cells, 46-hour incubation
Method in brief: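 Cryopreserved primary human CD4+ T cells were activated with anti-CD3/CD28 beads and driven to Th17 with TGF-β, IL-6, IL-23 and IL-1β in the presence of compound (2-500 nM or 4-1000 nM) for 46 h at 37° C. Supernatant IL-17A was quantified by HTRF against a standard curve and normalized to DMSO. IC50s came from variable-slope fits, with viability read by CyQuant.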

IC50 [3] [µM]	IC50 [4] [µM]	Structure (SMILES)	IC50 [1] [µM]	EC2x: concentration giving 2-fold induction of ARE luciferase reporter [2] [nM]
0.364	0.047	COC(=O)N[C@]12CCC(C)(C)C[C@H]1[C@H]1C(=O)C=C3[C@@]4(C)C=C(C#N)C(=O)[C@@](C)(O)[C@@H]4CC[C@@]3(C)[C@]1(C)CC2 [Compound T39, methyl ((4aS,6aR,6bS,8aR,9S,12aS,14aR,14bS)-11-cyano-9-hydroxy-2,2,6a,6b,9,12a-hexamethyl-10,14-dioxo-1,3,4,5,6,6a,6b,7,8,8a,9,10,12a,14,14a,14b-hexadecahydropicen-4a(2H)-yl)carbamate]	0.0912	218
0.135	0.035	COC(=O)N[C@]12CCC(C)(C)C[C@H]1[C@H]1C(=O)C=C3[C@@]4(C)C=C(C#N)C(=O)[C@@](C)(COC(C)=O)[C@@H]4CC[C@@]3(C)[C@]1(C)CC2 [Compound T41, ((4R,4aR,6aS,6bR,8aS,12aS,12bR,14bS)-2-cyano-8a-((methoxycarbonyl)amino)-4,6a,6b, 11,11,11,14b-hexamethyl-3,13-dioxo-3,4,4a,5,6,6a,6b,7,8,8a,9,10,11,12,12a,12b,13,14b-octadecahydropicen-4-yl)methyl acetate]	0.151	330
0.223	0.021	COC[C@]1(C)C(=O)C(C#N)=C[C@]2(C)C3=CC(=O)[C@@H]4[C@@H]5CC(C)(C)CC[C@]5(C(=O)OC)CC[C@@]4(C)[C@]3(C)CC[C@H]21 [Compound T20]	0.0156	175
0.176	0.018	Cc1noc([C@]23CCC(C)(C)C[C@H]2[C@H]2C(=O)C=C4[C@@]5(C)C=C(C#N)C(=O)C(C)(C)[C@@H]5CC[C@@]4(C)[C@]2(C)CC3)n1 [Comparison Compound #9, reference compound]	0.0012	12
0.216	0.019	COC(=O)[C@]12CCC(C)(C)C[C@H]1[C@H]1C(=O)C=C3[C@@]4(C)C=C(C#N)C(=O)[C@@](C)(C(=O)OC)[C@@H]4CC[C@@]3(C)[C@]1(C)CC2 [Compound T2, dimethyl (4S,4aR,6aS,6bR,8aS,12aS,12bR,14bS)-2-cyano-4,6a,6b,11,11,14b-hexamethyl-3,13-dioxo-4,4a,5,6,6a,6b,7,8,9,10,11,12,12a,12b,13,14b-hexadecahydropicene-4,8a(3H)-dicarboxylate]	0.092	204

More lines, now with the values behind:

Structure (SMILES)	IC50 [3] [µM]	IC50 [4] [µM]	IC50 [1] [µM]	EC2x: concentration giving 2-fold induction of ARE luciferase reporter [2] [nM]
COC(=O)[C@]12CCC(C)(C)C[C@H]1[C@H]1C(=O)C=C3[C@@]4(C)C=C(C#N)C(=O)[C@@](C)(C(F)F)[C@@H]4CC[C@@]3(C)[C@]1(C)CC2 [Compound T4, methyl (4aS,6aR,6bS,8aR,9S,12aS,14aR,14bS)-11-cyano-9-(difluoromethyl)-2,2,6a,6b,9,12a-hexamethyl-10,14-dioxo-1,3,4,5,6,6a,6b,7,8,8a,9,10,12a,14,14a,14b-hexadecahydropicene-4a(2H)-carboxylate]	0.234	0.029	0.0196	36
CC(=O)OC[C@]1(C)C(=O)C(C#N)=C[C@]2(C)C3=CC(=O)[C@]45OC(=O)[C@@]6(CCC(C)(C)C[C@H]64)CC[C@@]5(C)[C@]3(C)CC[C@H]21 [Compound T32, ((4R,4aR,6aR,6bS,8aS,12aR,12bS,14bS)-2-cyano-4,6a,6b, 11,11,14b-hexamethyl-3,13,16-trioxo-4,4a,5,6,6a,6b,7,8,10,11,12,12a,13,14b-tetradecahydro-3H,9H-12b,8a-(epoxymethano)picen-4-yl)methyl acetate]	0.118	0.028	0.115	243
Cc1noc([C@]23CCC(C)(C)C[C@H]2[C@H]2C(=O)C=C4[C@@]5(C)C=C(C#N)C(=O)[C@@](C)(O)[C@@H]5CC[C@@]4(C)[C@]2(C)CC3)n1 [Compound T47, (4S,4aR,6aS,6bR,8aS,12aS,12bR,14bS)-4-hydroxy-4,6a,6b, 11,11,14b-hexamethyl-8a-(3-methyl-1,2,4-oxadiazol-5-yl)-3,13-dioxo-3,4,4a,5,6,6a,6b,7,8,8a,9,10,11,12,12a,12b,13,14b-octadecahydropicene-2-carbonitrile]	0.139	0.017	0.0358	79
CC(=O)OC[C@]1(C)C(=O)C(C#N)=C[C@]2(C)C3=CC(=O)[C@@H]4[C@@H]5CC(C)(C)CC[C@]5(c5nnc(C)o5)CC[C@@]4(C)[C@]3(C)CC[C@H]21 [Compound T43, ((4R,4aR,6aS,6bR,8aS,12aS,12bR,14bS)-2-cyano-4,6a,6b, 11,11,14b-hexamethyl-8a-(5-methyl-1,3,4-oxadiazol-2-yl)-3,13-dioxo-3,4,4a,5,6,6a,6b,7,8,8a,9,10,11,12,12a,12b,13,14b-octadecahydropicen-4-yl)methyl acetate]	0.146	0.046	0.11	369
CN(C)C(=O)[C@]12CCC(C)(C)C[C@H]1[C@H]1C(=O)C=C3[C@@]4(C)C=C(C#N)C(=O)[C@@](C)(O)[C@@H]4CC[C@@]3(C)[C@]1(C)CC2 [Compound T30, (4aS,6aR,6bS,8aR,9S,12aS,14aR,14bS)-11-cyano-9-hydroxy-N,N,2,2,6a,6b,9,12a-octamethyl-10,14-dioxo-1,3,4,5,6,6a,6b,7,8,8a,9,10,12a,14,14a,14b-hexadecahydropicene-4a(2H)-carboxamide]	0.164	0.059	0.173	448
COC(=O)[C@]12CCC(C)(C)C[C@H]1[C@H]1C(=O)C=C3[C@@]4(C)C=C(C#N)C(=O)[C@@](C)(CO)[C@@H]4CC[C@@]3(C)[C@]1(C)CC2 [Comparison Compound #300, reference compound]	0.152	0.018	0.0074	34
COC(=O)[C@]12CCC(C)(C)C[C@H]1[C@H]1C(=O)C=C3[C@@]4(C)C=C(C#N)C(=O)[C@](C)(C(=O)OC)[C@@H]4CC[C@@]3(C)[C@]1(C)CC2 [Compound T3, dimethyl (4R,4aR,6aS,6bR,8aS,12aS,12bR,14bS)-2-cyano-4,6a,6b, 11,11,14b-hexamethyl-3,13-dioxo-4,4a,5,6,6a,6b,7,8,9,10,11,12,12a,12b,13,14b-hexadecahydropicene-4,8a(3H)-dicarboxylate]	0.169	0.018	0.0223	48
COC(=O)[C@]12CCC(C)(C)C[C@H]1[C@H]1C(=O)C=C3[C@@]4(C)C=C(C#N)C(=O)[C@@](C)(C(N)=O)[C@@H]4CC[C@@]3(C)[C@]1(C)CC2 [Compound T15, methyl (4aS,6aR,6bS,8aR,9S,12aS,14aR,14bS)-9-carbamoyl-11-cyano-2,2,6a,6b,9,12a-hexamethyl-10,14-dioxo-1,3,4,5,6,6a,6b,7,8,8a,9,10,12a,14,14a,14b-hexadecahydropicene-4a(2H)-carboxylate]	0.206	0.065	0.714	612
